Source: patent US12655090B2, “Cyclopropylamide compounds against parasites in fish” (Intervet Inc., priority 2021, dated 2026)
Like-named read-outs stand apart in the source and are kept apart here.

Assays:
[1] = test system: Mobile stages of sea lice (pre-adults, adults of Lepeophtheirus salmonis); assay: Adult sea lice contact assay; conditions: assessed after approximately 1 and 24 hours of continuous exposure, read-out: EC50 (sea lice inhibition, dead+damaged sea lice)
Experimental: Mobile stages of sea lice (i.e., pre-adults, adults of Lepeophtheirus salmonis) were exposed to seawater spiked with declining concentrations of a test compound (dissolved in a PEG sea-water mixture). Sea lice inhibition (% of dead+damaged sea lice) was assessed after approximately 1 and 24 hours of continuous exposure in comparison to a negative (solvent) control group.

[2] = test system: Lepeophtheirus salmonis sea lice on salmon (Salmo salar); assay: Salmon in vivo efficacy trial using gavage administration; conditions: po
Experimental: Salmon (Salmo salar) were treated once orally by gavage at a dose of 5 mg/kg bodyweight per fish (Day 0). As formulation DMSO 5%/fish oil 95% was used. Salmon of the negative control group received only the excipients of the formulation. The fish were infested with Lepeophtheirus salmonis copepodids twice before treatment (i.e., around day −28 and day −3) and once after treatment (i.e., day 17). […] Around day 28 (end of animal phase), fish were euthanized, and lice on each fish were classified ((pre-)adult or juvenile stage) and counted. […] Efficacy is expressed as a % reduction of sea lice in treated groups versus a control group, using the Abbott's formula.

[3] = test system: Copepodids (juvenile sea lice stage of Lepeophtheirus salmonis); assay: Juvenile sea lice contact assay; conditions: approximately 24 hours continuous exposure in seawater, read-out: Sea lice inhibition (% of dead+damaged copepodids); for inhibition at 0.1 µM: test concentration 100 nM; for inhibition at 0.01 µM: test concentration 10 nM; for inhibition at 0.0001 µM: test concentration 0.1 nM; for inhibition at 10 pM: test concentration 0.01 nM; for inhibition at 0.001 µM: test concentration 1 nM
Experimental: Copepodids (juvenile sea lice stage of Lepeophtheirus salmonis) were exposed to seawater spiked with declining concentrations of a test compound (dissolved in a DMSO sea-water mixture). Sea lice inhibition (% of dead+damaged copepodids) was assessed after approximately 24 hours of continuous exposure. The vitality of used parasites was confirmed in a negative (solvent) control group.

[4] = test system: Lepeophtheirus salmonis sea lice on salmon (Salmo salar); assay: Salmon in vivo efficacy trial using in-feed administration; conditions: 1 mg/kg fish biomass via coated feed for 7 consecutive days
Experimental: Commercial fish feed pellets were coated with formulated test compound. As formulation DMSO 5%/fish oil 95% was used. Salmon (Salmo salar) were treated orally with 1 mg/kg fish biomass via coated feed for 7 consecutive days. Salmon of the negative control groups received only feed coated with the excipients of the formulation. Fish of the therapeutic groups were infested with Lepeophtheirus salmonis copepodids twice before treatment (around day −28 and day −3).

[5] = 168 h, read-out: therapeutic efficacy against (pre-)adult sea lice (% reduction vs control, Abbott's formula), once orally by gavage 5 mg/kg bodyweight, day -28 infestation, counted at day 7
[6] = 672 h, read-out: therapeutic efficacy against juvenile sea lice (% reduction vs control, Abbott's formula), once orally by gavage 5 mg/kg bodyweight, day -3 infestation, counted around day 28
[7] = 672 h, read-out: prophylactic efficacy at re-infestation on Day 17 (% reduction vs control, Abbott's formula), once orally by gavage 5 mg/kg bodyweight, re-infestation day 17, counted around day 28

SMILES: N#CC1(NC(=O)c2cc(NC(=O)[C@H]3[C@H](c4ccc(Cl)c(F)c4)C3(Cl)Cl)ccc2Cl)CC1 [Compound 1606]
- EC50 [1]: 10 to 25 nM
- inhibition in vivo at 5 mg/kg [2, 5]: 100%
- inhibition in vivo at 5 mg/kg [2, 6]: 100%
- inhibition at 0.1 µM [3]: 100%

SMILES: O=C(NC1CC1)c1cc(NC(=O)[C@H]2[C@H](c3cc(Cl)cc(Cl)c3)C2(Cl)Cl)ccc1Cl [Compound 1621]
- EC50 [1]: ≤ 1 nM
- inhibition in vivo at 5 mg/kg [2, 5]: 100%
- inhibition in vivo at 5 mg/kg [2, 6]: 80%
- inhibition at 0.01 µM [3]: 100%

SMILES: C#CC1(NC(=O)c2cc(NC(=O)[C@H]3[C@H](c4cc(Cl)cc(Cl)c4)C3(Cl)Cl)cc(F)c2F)CC1 [Compound 1617, 5-((1R,3R)-2,2-dichloro-3-(3,5-dichlorophenyl)cyclopropane-1-carboxamido)-N-(1-ethynylcyclopropyl)-2,3-difluorobenzamide]
- EC50 [1]: ≤ 1 nM
- inhibition in vivo at 5 mg/kg [2, 5]: 100%
- inhibition in vivo at 5 mg/kg [2, 7]: 100%
- inhibition in vivo at 5 mg/kg [2, 6]: 100%
- inhibition at 0.1 µM [3]: 100%

SMILES: N#CC1(NC(=O)c2cc(NC(=O)[C@H]3[C@H](c4cc(F)c(F)c(F)c4)C3(Cl)Cl)ccc2Cl)CC1 [Compound 1624]
- EC50 [1]: 1 to 10 nM
- inhibition in vivo at 5 mg/kg [2, 5]: 100%
- inhibition in vivo at 5 mg/kg [2, 7]: 80%
- inhibition in vivo at 5 mg/kg [2, 6]: 80%
- inhibition at 0.0001 µM [3]: 100%

SMILES: N#CC1(NC(=O)c2cc(NC(=O)C3C(c4cc(Cl)cc(Cl)c4)C3(Cl)Cl)ccc2F)CC1 (centres unmarked) [Compound 1605]
- EC50 [1]: ≤ 1 nM
- inhibition in vivo at 5 mg/kg [2, 5]: 100%
- inhibition in vivo at 5 mg/kg [2, 6]: 100%
- inhibition at 10 pM [3]: 100%

SMILES: N#CC1(NC(=O)c2cc(NC(=O)[C@H]3[C@H](c4cc(Cl)cc(Cl)c4)C3(Cl)Cl)cc(F)c2F)CC1 [Compound 1594]
- EC50 [1]: ≤ 1 nM
- inhibition in vivo at 5 mg/kg [2, 5]: 100%
- inhibition in vivo at 5 mg/kg [2, 7]: 100%
- inhibition in vivo at 5 mg/kg [2, 6]: 100%
- therapeutic efficacy against juvenile sea lice ([4]; day -3 infestation, counted around day 25): 100%
- therapeutic efficacy against (pre-)adult sea lice ([4]; day -28 infestation, counted around day 8): 100%
- prophylactic efficacy against re-infestation after treatment (D14) ([4]; re-infestation D14): 100%
- prophylactic efficacy against re-infestation after treatment (D28) ([4]; re-infestation D28): 100%
- inhibition at 0.0001 µM [3]: 80%

SMILES: C#CCNC(=O)c1cc(NC(=O)[C@H]2[C@H](c3cc(Cl)cc(Cl)c3)C2(Cl)Cl)ccc1Cl [Compound 1622]
- EC50 [1]: ≤ 1 nM
- inhibition in vivo at 5 mg/kg [2, 5]: 100%
- inhibition at 0.01 µM [3]: ≥ 80%

SMILES: O=C(NC1CC1)c1cc(NC(=O)[C@H]2[C@H](c3cc(Cl)cc(Cl)c3)C2(Cl)Cl)cc(F)c1F [Compound 1618]
- EC50 [1]: ≤ 1 nM
- inhibition in vivo at 5 mg/kg [2, 5]: 100%
- inhibition in vivo at 5 mg/kg [2, 7]: 100%
- inhibition in vivo at 5 mg/kg [2, 6]: 100%
- inhibition at 0.01 µM [3]: 100%

SMILES: N#CC1(NC(=O)c2cc(NC(=O)[C@H]3[C@H](c4ccc(C(F)F)c(F)c4)C3(Cl)Cl)ccc2Cl)CC1 [Compound 1587]
- EC50 [1]: ≤ 1 nM
- inhibition in vivo at 5 mg/kg [2, 5]: 80%
- inhibition at 0.1 µM [3]: 100%

SMILES: C#CC1(NC(=O)c2cc(NC(=O)[C@H]3[C@H](c4cc(Cl)cc(Cl)c4)C3(Cl)Cl)ccc2Cl)CC1 [Compound 1620, 2-chloro-5-((1R,3R)-2,2-dichloro-3-(3,5-dichlorophenyl)cyclopropane-1-carboxamido)-N-(1-ethynylcyclopropyl)benzamide]
- EC50 [1]: ≤ 1 nM
- inhibition in vivo at 5 mg/kg [2, 5]: 100%
- inhibition in vivo at 5 mg/kg [2, 6]: 80%
- inhibition at 0.01 µM [3]: 100%

SMILES: CC1(NC(=O)c2cc(NC(=O)[C@H]3[C@H](c4cc(Cl)cc(Cl)c4)C3(Cl)Cl)ccc2F)CC1 [Compound 1626]
- EC50 [1]: 1 to 10 nM
- inhibition in vivo at 5 mg/kg [2, 5]: 100%
- inhibition in vivo at 5 mg/kg [2, 6]: 80%
- inhibition at 0.01 µM [3]: ≥ 80%

SMILES: O=C(NCC(F)(F)F)c1cc(NC(=O)[C@H]2[C@H](c3ccc(F)c(F)c3)C2(Cl)Cl)ccc1Cl [Compound 1584]
- EC50 [1]: ≤ 1 nM
- inhibition in vivo at 5 mg/kg [2, 5]: 100%
- inhibition at 0.0001 µM [3]: 100%

SMILES: O=C(NC1CC(F)(F)C1)c1cc(NC(=O)[C@H]2[C@H](c3cc(Cl)cc(Cl)c3)C2(Cl)Cl)ccc1Cl [Compound 1625]
- EC50 [1]: ≤ 1 nM
- inhibition in vivo at 5 mg/kg [2, 5]: 100%
- inhibition in vivo at 5 mg/kg [2, 7]: 100%
- inhibition in vivo at 5 mg/kg [2, 6]: 100%
- inhibition at 0.1 µM [3]: 100%

SMILES: O=C(NC1CC(F)(F)C1)c1cc(NC(=O)[C@H]2[C@H](c3cc(Cl)cc(Cl)c3)C2(Cl)Cl)cc(F)c1F [Compound 1628]
- EC50 [1]: 1 to 10 nM
- inhibition in vivo at 5 mg/kg [2, 5]: 100%
- inhibition in vivo at 5 mg/kg [2, 7]: 100%
- inhibition in vivo at 5 mg/kg [2, 6]: 100%
- inhibition at 0.01 µM [3]: 100%

SMILES: N#CC1(NC(=O)c2cc(NC(=O)[C@H]3[C@H](c4cc(Cl)c(F)c(Cl)c4)C3(Cl)Cl)ccc2Cl)CC1 [Compound 1609]
- EC50 [1]: 1 to 10 nM
- inhibition in vivo at 5 mg/kg [2, 5]: 100%
- inhibition in vivo at 5 mg/kg [2, 7]: 100%
- inhibition in vivo at 5 mg/kg [2, 6]: 100%
- inhibition at 0.01 µM [3]: 100%

SMILES: O=C(NCC(F)(F)F)c1cc(NC(=O)[C@H]2[C@H](c3cc(F)c(F)c(F)c3)C2(Cl)Cl)ccc1Cl [Compound 1593]
- EC50 [1]: ≤ 1 nM
- inhibition in vivo at 5 mg/kg [2, 5]: 100%
- inhibition in vivo at 5 mg/kg [2, 6]: 80%
- inhibition at 10 pM [3]: 100%

SMILES: O=C(NC1CC1)c1cc(NC(=O)[C@H]2[C@H](c3cc(Cl)cc(Cl)c3)C2(Cl)Cl)ccc1F [Compound 1632]
- EC50 [1]: ≤ 1 nM
- inhibition in vivo at 5 mg/kg [2, 5]: 100%
- inhibition in vivo at 5 mg/kg [2, 6]: 80%
- inhibition at 10 pM [3]: 80%

SMILES: O=C(NC1CC(F)(F)C1)c1cc(NC(=O)[C@H]2[C@H](c3cccc(C(F)(F)F)c3)C2(Cl)Cl)ccc1Cl [Compound 1601]
- EC50 [1]: 1 to 10 nM
- inhibition in vivo at 5 mg/kg [2, 5]: 100%
- inhibition in vivo at 5 mg/kg [2, 6]: 100%
- inhibition at 0.001 µM [3]: 100%

SMILES: O=C(NC1CC(F)(F)C1)c1cc(NC(=O)[C@H]2[C@H](c3cc(Cl)cc(Cl)c3)C2(Cl)Cl)ccc1F [Compound 1630]
- EC50 [1]: ≤ 1 nM
- inhibition in vivo at 5 mg/kg [2, 5]: 100%
- inhibition in vivo at 5 mg/kg [2, 7]: 100%
- inhibition in vivo at 5 mg/kg [2, 6]: 100%
- inhibition at 0.01 µM [3]: 100%

SMILES: O=C(NCC(F)(F)F)c1cc(NC(=O)[C@H]2[C@H](c3cc(Cl)cc(Cl)c3)C2(Cl)Cl)ccc1Cl [Compound 1592]
- EC50 [1]: ≤ 1 nM
- inhibition in vivo at 5 mg/kg [2, 5]: 100%
- inhibition in vivo at 5 mg/kg [2, 6]: 100%
- inhibition at 0.0001 µM [3]: 80%

SMILES: N#CC1(NC(=O)c2cc(NC(=O)[C@H]3[C@H](c4ccc(F)c(Cl)c4)C3(Cl)Cl)ccc2Cl)CC1 [Compound 1608]
- EC50 [1]: ≤ 1 nM
- inhibition in vivo at 5 mg/kg [2, 5]: 100%
- inhibition in vivo at 5 mg/kg [2, 6]: 100%
- inhibition at 10 pM [3]: 100%

SMILES: N#CC1(NC(=O)c2cc(NC(=O)[C@H]3[C@H](c4ccc(Br)c(Cl)c4)C3(Cl)Cl)ccc2Cl)CC1 [Compound 1585]
- EC50 [1]: 1 to 10 nM
- inhibition in vivo at 5 mg/kg [2, 5]: 100%
- inhibition in vivo at 5 mg/kg [2, 6]: 100%
- inhibition at 0.1 µM [3]: 100%

SMILES: N#CC1(NC(=O)c2cc(NC(=O)[C@H]3[C@H](c4cc(F)c(F)c(F)c4)C3(Cl)Cl)ccc2F)CC1 [Compound 1623]
- EC50 [1]: 1 to 10 nM
- inhibition in vivo at 5 mg/kg [2, 5]: 100%
- inhibition in vivo at 5 mg/kg [2, 6]: 80%
- inhibition at 0.0001 µM [3]: 100%

SMILES: C#CC1(NC(=O)c2cc(NC(=O)[C@H]3[C@H](c4cc(Cl)cc(Cl)c4)C3(Cl)Cl)ccc2F)CC1 [Compound 1633, 5-((1R,3R)-2,2-dichloro-3-(3,5-dichlorophenyl)cyclopropane-1-carboxamido)-N-(1-ethynylcyclopropyl)-2-fluorobenzamide]
- EC50 [1]: ≤ 1 nM
- inhibition in vivo at 5 mg/kg [2, 5]: 100%
- inhibition in vivo at 5 mg/kg [2, 7]: 80%
- inhibition in vivo at 5 mg/kg [2, 6]: 100%
- inhibition at 0.001 µM [3]: 80%

SMILES: CC1(NC(=O)c2cc(NC(=O)[C@H]3[C@H](c4cc(Cl)cc(Cl)c4)C3(Cl)Cl)ccc2Cl)CC1 [Compound 1619]
- EC50 [1]: ≤ 1 nM
- inhibition in vivo at 5 mg/kg [2, 5]: 100%
- inhibition in vivo at 5 mg/kg [2, 6]: 80%
- inhibition at 0.01 µM [3]: 100%
